Series [1] concerns the target T1, Human Multidrug Resistance 1 (MDR-1) Expressing Cells (Homo sapiens, UniProt P08183).
T1 construct: expressed in transfected cells
Description: Membrane permeability with human MDR-1 expressing cells. The conditions noted are these: supplementary csv. The format is in vitro ADME. How it is done:
(§1) The transcellular transport study was performed as reported previously.[31] In brief, the cells were grown in an HTS Transwell 96-well permeable support (pore size of 0.4 μm, 0.143 cm^2 surface area) with a polyethylene terephthalate membrane (Corning Life Sciences, Lowell, MA, USA) at a density of 1.125 × 10^5 cells/well. The cells were preincubated with M199 at 37 °C for 30 min. Subsequently, transcellular transport was initiated by the addition of M199 to apical compartments containing 1 μmol/L test compounds and terminated by the removal of each assay plate after 2 h. The aliquots in the opposite compartments were subjected to measurement for compound concentration by LC–MS/MS. Permeability was calculated using the permeated compound concentration.

Another series addresses T2, MDR1 (P-gp) (Homo sapiens, UniProt P08183).
T2 construct: expressed in transfected cells
Described as above. The format is in vitro ADME. The conditions noted are these: human; MDR1-expressing cells, 1 μmol/L, 2 h. On the procedure:
as §1

Another series has as its target T3, human C1s (Homo sapiens, UniProt P09871).
T3 construct: Recombinant human C1s (358–688 aa) fused with both the N-terminal IgG signal peptide; IgG signal peptide (N); His tag (C); made in house; host or cells: HEK293 cells
T3 sequence (P09871 358-688): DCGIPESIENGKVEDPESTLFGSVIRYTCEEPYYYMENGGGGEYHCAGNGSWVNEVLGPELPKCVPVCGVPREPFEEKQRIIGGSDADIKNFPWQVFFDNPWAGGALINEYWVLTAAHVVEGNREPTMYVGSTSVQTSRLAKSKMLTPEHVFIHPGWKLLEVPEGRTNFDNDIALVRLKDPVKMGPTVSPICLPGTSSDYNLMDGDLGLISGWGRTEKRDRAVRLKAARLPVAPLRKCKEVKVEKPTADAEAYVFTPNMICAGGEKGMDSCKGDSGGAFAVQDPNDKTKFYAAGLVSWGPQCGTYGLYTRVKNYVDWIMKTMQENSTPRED
The series can be described thus: Human C1s enzyme assay. Format: biochemical. On the procedure: Recombinant human C1s (358–688 aa) fused with both the N-terminal IgG signal peptide and the C-terminal His tag was expressed in HEK293 cells and purified. The assay was performed in a 384-well clear plate in a total volume of 20 μL of an assay buffer 1 [50 mmol/L Tris–HCl (pH 7.5), 150 mmol/L NaCl, 0.01% (w/v) Tween 20, and 0.01% (w/v) BSA]. Compounds were dissolved in DMSO and diluted to various concentrations. After 20 nL of compound solution was added to the plate, 10 μL of substrate solution containing a 250 μmol/L Z-Lys-SBzl peptide (Watanabe Chemical, Hiroshima, Japan) and 250 μmol/L DTNB (5,5′-dithiobis(2-nitrobenzoic acid)) (Sigma, MO, USA) was added to the plate. Then, 8 nmol/L human C1s was added to the plate and incubated at room temperature for 60 min. The absorbance at 405 nm was detected using an EnVision multilabel plate reader. […] The IC50 values were calculated using IDBS XLfit software.

A further series can be described thus: PAMPA. Format: in vitro ADME. On the procedure:
A PAMPA Evolution system (pION) was applied for the assay. After incubating the test compound (10 μmol/L) for 3 h at 25 °C, the permeation coefficient value was calculated with determining the test compound by LC/MS/MS.
For orientation: In PAMPA a lipid-coated filter parts donor from acceptor wells.

For a further series, the target named is T4, human C1r (Homo sapiens, UniProt P00736).
T4 construct: Recombinant human C1r (375–705 aa) fused with both the N-terminal IgG signal peptide; IgG signal peptide (N); His tag (C); made in house; host or cells: HEK293 cells
T4 sequence (P00736 375-705): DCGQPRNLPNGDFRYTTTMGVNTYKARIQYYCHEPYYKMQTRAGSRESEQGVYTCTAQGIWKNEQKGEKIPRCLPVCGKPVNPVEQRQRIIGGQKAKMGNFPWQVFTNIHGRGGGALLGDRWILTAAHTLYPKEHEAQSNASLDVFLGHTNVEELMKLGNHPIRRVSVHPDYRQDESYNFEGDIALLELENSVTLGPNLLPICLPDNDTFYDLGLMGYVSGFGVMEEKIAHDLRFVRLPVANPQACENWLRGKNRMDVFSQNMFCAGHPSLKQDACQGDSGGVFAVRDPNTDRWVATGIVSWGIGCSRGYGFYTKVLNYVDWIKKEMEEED
The series can be described thus: Human C1r enzyme assay. Format: biochemical. From the text:
Recombinant human C1r (375–705 aa) fused with both the N-terminal IgG signal peptide and the C-terminal His tag was expressed in HEK293 cells and purified. Human C1r assay conditions were the same as for human C1s, except that the enzyme solution concentration was 3 nmol/L and the substrate peptide was 250 μmol/L Z-Gly-Arg-SBzl (custom synthesis from Peptide Institute, Osaka, Japan) instead of Z-Lys-SBzl.

Another series has as its target T5, human thrombin (Homo sapiens, UniProt P00734).
T5 construct: purchased AnaSpec
The series can be described thus: Human thrombin enzyme assay. Format: biochemical. How it is done:
The human thrombin enzyme activity was determined by a SensoLyte 520 thrombin activity assay kit (AnaSpec, CA, USA). Purified human thrombin and the substrate were diluted in the assay buffer 1. After 20 nL of compound solution was added to a 384-well black plate, 3 μL of the 2 μmol/L 5-FAM/QXLTM 520 thrombin substrate was added to the plate. Then, 8 nmol/L human thrombin was added to the plate and incubated at room temperature for 60 min. The fluorescence at an excitation wavelength of 485 nm and an emission wavelength of 535 nm was detected using an EnVision multilabel plate reader.

The target of another series is T6, human factor D (Homo sapiens, UniProt P00746).
T6 construct: Recombinant human factor D (26–253 aa) fused with both the N-terminal IgG signal peptide; IgG signal peptide (N); His tag (C); made in house; host or cells: Expi293 cells
T6 sequence (P00746 26-253): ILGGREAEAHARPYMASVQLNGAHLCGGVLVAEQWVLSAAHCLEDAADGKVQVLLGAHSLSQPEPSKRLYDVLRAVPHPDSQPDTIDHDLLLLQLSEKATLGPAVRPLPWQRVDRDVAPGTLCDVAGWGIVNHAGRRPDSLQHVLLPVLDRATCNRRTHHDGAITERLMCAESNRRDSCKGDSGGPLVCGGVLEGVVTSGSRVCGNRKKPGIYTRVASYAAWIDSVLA
Description: Human factor D enzyme assay. The format is biochemical. From the text:
Recombinant human factor D (26–253 aa) fused with both the N-terminal IgG signal peptide and the C-terminal His tag was expressed in Expi293 cells and purified. The human factor D assay condition was the same as for human MASP2, except that the enzyme solution concentration was 20 nmol/L and the substrate solution contained a 400 μmol/L Z-Lys-SBzl peptide and 50 μmol/L BES-Thio.

The next series addresses T7, human MASP2 (Homo sapiens, UniProt O00187).
T7 construct: Recombinant human MASP2 (298–686 aa) fused with both the N-terminal IgG signal peptide; IgG signal peptide (N); His tag (C); made in house; host or cells: Expi293 cells
Description: Human MASP2 enzyme assay. The format is biochemical. How it is done: Recombinant human MASP2 (298–686 aa) fused with both the N-terminal IgG signal peptide and the C-terminal His tag was expressed in Expi293 cells and purified. The assay was performed in a 384-well black plate in a total volume of 6 μL of the assay buffer 1. After 20 nL of compound solution was added to the plate, 3 μL of substrate solution containing a 20 μmol/L Z-Gly-Arg-SBzl peptide and 20 μmol/L BES-Thio (FUJIFILM Wako, Osaka, Japan) was added to the plate. Then, 0.6 nmol/L human MASP2 was added to the plate and incubated at room temperature for 60 min. The fluorescence at an excitation wavelength of 485 nm and an emission wavelength of 535 nm was detected using an EnVision multilabel plate reader.

Another series deals with human trypsin. Description: Human trypsin enzyme assay. The format is biochemical. On the procedure:
Recombinant human trypsin (FUJIFILM Wako, Osaka, Japan) and the substrate were diluted in an assay buffer [50 mmol/L Tris–HCl (pH 7.5), 145 mmol/L NaCl, 2 mmol/L CaCl2, and 0.01% (w/v) Tween 20]. After 20 nL of compound solution was added to a 384-well black plate, 3 μL of substrate solution containing 25 μmol/L Boc-Phe-Ser-Arg-MCA (Peptide Institute, Osaka, Japan) was added to the plate. Then, 6 mU/mL human trypsin was added to the plate and incubated at room temperature for 60 min. The fluorescence at an excitation wavelength of 360 nm and an emission wavelength of 460 nm was detected using an EnVision multilabel plate reader.

[2] abbreviates: 95% confidence intervals in parentheses.

Where a name gives a salt, the structure may show the parent alone.

T7 sequence (O00187 298-686): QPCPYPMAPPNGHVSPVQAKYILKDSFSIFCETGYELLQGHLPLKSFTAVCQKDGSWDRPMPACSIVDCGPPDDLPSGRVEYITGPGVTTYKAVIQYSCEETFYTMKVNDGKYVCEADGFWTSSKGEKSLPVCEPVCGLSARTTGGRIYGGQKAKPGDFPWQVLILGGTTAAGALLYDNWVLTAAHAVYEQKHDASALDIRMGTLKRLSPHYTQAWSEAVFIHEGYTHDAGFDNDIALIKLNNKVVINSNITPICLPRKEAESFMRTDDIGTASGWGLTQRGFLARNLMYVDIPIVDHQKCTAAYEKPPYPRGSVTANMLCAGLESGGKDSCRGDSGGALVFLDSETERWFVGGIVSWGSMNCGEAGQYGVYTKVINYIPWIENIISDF

Broadly, the Papp A→B is the apparent permeability from the apical to the basolateral side of a cell layer. The IC50 is the midpoint of a concentration-inhibition curve. A word on the Papp: it is the rate of passage across a membrane or cell layer, normalised by area and donor concentration. `Cc1cc([C@H]2CN(c3ccc4c(N)nncc4c3)CCN2c2cccc(F)c2)no1.O=C(O)C(F)(F)F` [Compound (R)-7, 6-[(3R)-4-(3-Fluorophenyl)-3-(5-methyl-1,2-oxazol-3-yl)piperazin-1-yl]phthalazin-1-amine Trifluoroacetic Acid Salt]: in [1], the “MDR1 (A to B)” value came out at 3 nm/s. This molecule also had a Papp A→B at 2 h, 1 μmol/L at MDR1 (P-gp) of 0.3 ×10⁻⁶ cm/s. Moreover, the IC50 at human C1s (setting [2]) worked out at 0.0071 µM. In “PAMPA” (PAMPA, pH 7.4), this molecule had a Papp at 3 h, 10 μmol/L of 1.9 ×10⁻⁶ cm/s. Further, the “PAMPA at pH 7.4 (nm/sec)” value in “PAMPA” (supplementary csv) was 19 nm/sec.

On to `C[C@H]1CN(c2ccc3c(N)nncc3c2)CCN1c1cccc(F)c1` [(S)-6, 6-[(3S)-4-(3-Fluorophenyl)-3-methylpiperazin-1-yl]phthalazin-1-amine], for which, at human C1s (setting [2]), the IC50 was determined as 0.17 µM.

In the case of `Cc1ccccc1N1CCN(c2ccc3c(N)nncc3c2)CC1` [Compound 5d, 6-[4-(2-Methylphenyl)piperazin-1-yl]phthalazin-1-amine Trifluoroacetic Acid Salt], the IC50 on human C1s (setting [2]) came out at 1.2 µM.

With `COc1cccc(N2CCN(c3ccc4c(N)nncc4c3)CC2)c1` [Compound 5i, 6-[4-(3-Methoxyphenyl)piperazin-1-yl]phthalazin-1-amine], the IC50 on human C1s (setting [2]) is 1.4 µM.

`N#Cc1cccc(N2CCN(c3ccc4c(N)nncc4c3)CC2)c1` [Compound 5j, 3-[4-(1-Aminophthalazin-6-yl)piperazin-1-yl]benzonitrile]: the IC50 at human C1s (setting [2]) is 1.4 µM.

As to `Nc1nncc2cc(N3CCN(C(=O)c4ccccc4)CC3)ccc12` [Compound 4f, [4-(1-Aminophthalazin-6-yl)piperazin-1-yl](phenyl)methanone], the IC50 at human C1s (setting [2]) stood at 5.1 µM.

Regarding `Cc1cccc(N2CCN(c3ccc4c(N)nncc4c3)CC2)c1` [Compound 5e, 6-[4-(3-Methylphenyl)piperazin-1-yl]phthalazin-1-amine], the IC50 on human C1s (setting [2]) was 0.56 µM.

For the molecule `Cc1ccccc1C(=O)N1CCN(c2ccc3c(N)nncc3c2)CC1` [Compound 4e, [4-(1-Aminophthalazin-6-yl)piperazin-1-yl](2-methylphenyl)methanone], the IC50 was above 30 µM at human C1r; above 30 µM against human thrombin; above 30 µM on human factor D; above 30 µM on human MASP2; 4.5 µM on human C1s (supplementary csv); above 30 µM on human trypsin.

As to `Cc1ccc(C(=O)N2CCN(c3ccc4cnncc4c3)CC2)cc1` [Compound 4d, (4-Methylphenyl)[4-(phthalazin-6-yl)piperazin-1-yl]methanone], the IC50 on human C1s (setting [2]) is above 300 µM.

Turning to `Cc1ccc(C(=O)N2CCN(c3ccc4c(N)nncc4c3)CC2)cc1` [Compound 4c, [4-(1-Aminophthalazin-6-yl)piperazin-1-yl](4-methylphenyl)methanone], at human C1s (setting [2]), the IC50 turned out to be 2.5 µM.

Consider `Nc1nncc2cc(N3CCN(c4ccccc4)CC3)ccc12` [Compound 5a, 6-(4-Phenylpiperazin-1-yl)phthalazin-1-amine Trifluoroacetic Acid Salt], for which the IC50 on human C1s (setting [2]) was 0.58 µM.

As for `Cc1cc([C@@H]2CN(c3cc(F)c4c(N)nncc4c3)CCN2c2cccc(F)c2)no1` [(S)-8, 8-Fluoro-6-[(3S)-4-(3-fluorophenyl)-3-(5-methyl-1,2-oxazol-3-yl)piperazin-1-yl]phthalazin-1-amine], the IC50 at human C1s (setting [2]) is above 300 µM.

In the case of `C[C@@H]1CN(c2ccc3c(N)nncc3c2)CCN1c1cccc(F)c1` [(R)-6, 6-[(3R)-4-(3-Fluorophenyl)-3-methylpiperazin-1-yl]phthalazin-1-amine], the IC50 at human C1s (setting [2]) worked out at 0.82 µM.

For `Nc1nncc2cc(C3CCN(c4ccccc4)CC3)ccc12` [Compound 5c, 6-(1-Phenylpiperidin-4-yl)phthalazin-1-amine], at human C1s (setting [2]), the IC50 was above 30 µM.

Turning to `Nc1nncc2cc(N3CCC(c4ccccc4)CC3)ccc12` [Compound 5b, 6-(4-Phenylpiperidin-1-yl)phthalazin-1-amine Trifluoroacetic Acid Salt], the IC50 at human C1s (setting [2]) amounted to 4.2 µM.

`Cc1ccc(N2CCN(c3ccc4c(N)nncc4c3)CC2)cc1` [Compound 5f, 6-[4-(4-Methylphenyl)piperazin-1-yl]phthalazin-1-amine]: the IC50 at human C1s (setting [2]) was 6.7 µM.

Turning to `Cc1ccc(C(=O)N2CCN(c3ccc4c(N)nccc4c3)CC2)cc1` [Compound 4b, [4-(1-Aminoisoquinolin-6-yl)piperazin-1-yl](4-methylphenyl)methanone], on human C1s (setting [2]), the 50% inhibitory concentration (IC50) amounted to 96 µM.

On to `Nc1nncc2cc(N3CCN(c4cccc(F)c4)CC3)ccc12` [Compound 5g, 6-[4-(3-Fluorophenyl)piperazin-1-yl]phthalazin-1-amine], for which the IC50 at human C1s (setting [2]) stood at 0.37 µM.

Consider `Nc1nncc2cc(N3CCN(c4cccc(Cl)c4)CC3)ccc12` [Compound 5h, 6-[4-(3-Chlorophenyl)piperazin-1-yl]phthalazin-1-amine Trifluoroacetic Acid Salt], for which the IC50 at human C1s (setting [2]) is 0.39 µM.

The record behind these values is paper PMC10184130.
